# From paper PMC8643917, “982. Effect of Hepatic Impairment on the Safety and Pharmacokinetics of Rezafungin” (Open Forum Infectious Diseases, 2021)
# Where two headings read alike, the source gives them in different places. *1 amine or outer side, *2 acyl side, *3 side chain or, on linkers, in order; H or OH if unused. Where a SMILES comes first, the peptide text is derived from it. Bridges are numbered along the chain shown (N, C = ends). [ ]: non-standard residue; d: D form. The star is where a group is joined. Orn(4R-OH,5R-OCH2CH2NMe3+) = C[N+](C)(C)CCO[C@@H](N[*:3])[C@H](O)C[C@H](N[*:1])C(=O)[*:2]; pTerphenylCO(4''-OnC5H11) = CCCCCOc1ccc(-c2ccc(-c3ccc(C(=O)*)cc3)cc2)cc1; hTyr(3S-OH,4S-OH) = N[C@H](C(=O)O)[C@H](O)[C@@H](O)c1ccc(O)cc1; Pro(3S-OH,4S-Me) = C[C@H]1CN[C@H](C(=O)O)[C@H]1O; Hyp = O=C(O)[C@@H]1C[C@@H](O)CN1
# Tests used:
# [1] = Plasma pharmacokinetics of rezafungin after a single 400-mg IV 1-hour infusion, open-label single-dose study, non-compartmental analysis; assay type: in vivo, human; conditions: for half-life: n = 8, plasma sampling through 336 hours postdose, non-compartmental analysis
# Text: (§1) Abstract Background Rezafungin (RZF) is a novel echinocandin antifungal being developed for treatment of candidemia and invasive candidiasis, and for prevention of invasive fungal diseases among immunosuppressed patients. In the Phase 2 and Phase 3 treatment trials of rezafungin compared with caspofungin (STRIVE [NCT02734862] and ReSTORE [NCT03667690], respectively), patients with severe hepatic impairment (HI) were not included due to lack of caspofungin data in this population. Rezafungin was previously evaluated in patients with moderate hepatic impairment. Here we report an open-label, single-dose study on rezafungin in patients with HI (Child-Pugh class C). Methods To investigate the safety, tolerability, and pharmacokinetics (PK) of RZF in subjects with HI and healthy subjects (HS), 8 subjects with HI and 8 HS matched for age, sex, and body mass index (BMI) were enrolled and received a single 400-mg intravenous 1-hour infusion of RZF. Plasma PK sampling was performed at various time points through 336 hours postdose. RZF PK parameters were derived using non-compartmental analysis. Safety was assessed throughout the study. Results The majority of the HI subjects were White (87.5%) and male (75%) while equal distribution between White and Black or African American was observed among HS (50%) and 75% were male. The mean age of HI subjects was 58 years (range, 41–68 years) and 56.6 years (range, 50–61 years) for the HS. Mean BMI was 29.7 kg/m^2 (range, 24.5–34.3 kg/m^2) for HI subjects and 29.7 kg/m^2 (range, 25.4–34.2 kg/m^2) for the HS. […] Three HI subjects had one adverse event (AE) each (bronchitis, worsening hepatic encephalopathy, hyponatremia), all moderate in severity; one HS had 1 AE of infusion site infiltration mild in severity. […] Table 1. Plasma Rezafungin PK Parameter Estimates in Subjects with Severe Hepatic Impairment or Normal Hepatic Function After a Single 400 mg IV Infusion of Rezafungin Figure 1. […] These findings support no RZF dose adjustment in subjects with severe hepatic impairment. Disclosures Voon Ong, PhD, Cidara Therapeutics (Employee, Shareholder) Taylor Sandison, MD, MPH, Cidara Therapeutics (Employee, Shareholder) Rebeca M. Melara, M.S., Altasciences (contract research organization) (Employee) Thomas C. Marbury, MD, Orlando Clinical Research Center (Employee, Other Financial or Material Support, Equity owner of Orlando Clinical Research Center) Alena Jandourek, MD, Cidara therapeutics (Consultant) Shawn Flanagan, PhD, Cidara Therapeutics (Employee, Shareholder)
# [2] = Safety and tolerability of a single 400-mg IV infusion of rezafungin in subjects with severe hepatic impairment and matched healthy subjects; assay type: in vivo, human
# Text: as §1
# [3] = HI (Child-Pugh class C, n = 8) versus matched HS (n = 8), plasma, reduction
structure (smiles),measurement,setting,value
"CCCCCOc1ccc(-c2ccc(-c3ccc(C(=O)N[C@H]4C[C@@H](O)[C@@H](OCC[N+](C)(C)C)NC(=O)[C@@H]5[C@@H](O)[C@@H](C)CN5C(=O)[C@H]([C@@H](C)O)NC(=O)[C@H]([C@H](O)[C@@H](O)c5ccc(O)cc5)NC(=O)[C@@H]5C[C@@H](O)CN5C(=O)[C@H]([C@@H](C)O)NC4=O)cc3)cc2)cc1 [RZF, Rezafungin] ({pTerphenylCO(4''-OnC5H11)}-[Orn(4R-OH,5R-OCH2CH2NMe3+)]T[Hyp][hTyr(3S-OH,4S-OH)]T[Pro(3S-OH,4S-Me)]; lactam 1-C)","RZF exposure (AUC) in subjects with HI, lower than that in HS",[1]; [3],~ 30%
same,"RZF exposure (Cmax) in subjects with HI, lower than that in HS",[1]; [3],~ 30%
same,half-life,"[1]; both sexes, human, subjects with severe hepatic impairment (HI, Child-Pugh class C), read-out: half-life (converted)",5.04 days
same,half-life,"[1]; healthy subjects (HS) matched for age, sex and BMI",5.17 days
same,adverse events considered related to RZF,"[2]; HI and HS subjects, all AEs resolved or resolving by the end of the study",No AEs were considered related to RZF
same,tolerability,[2]; HI subjects (Child-Pugh class C),well tolerated
same,number of subjects with an adverse event (AE),"[2]; HI subjects (n = 8), one AE each (bronchitis, worsening hepatic encephalopathy, hyponatremia), all moderate in severity",Three
same,number of subjects with an adverse event (AE),"[2]; healthy subjects (n = 8), 1 AE of infusion site infiltration, mild in severity",one
